According to patent US11129782B2, “Derivatives of PPD useful for coloring hair and skin” (National University of Singapore, priority 2017, dated 2021):

How the values were obtained:
[1] = test system: cysteine peptide (Ac-RFAACAA-COOH); test: Direct Peptide Reactivity Assay, cysteine peptide; conditions: for % of Cysteine depletion, Avg / % of Cysteine depletion, Rep 2 / % of Cysteine depletion, Rep 3 / Reactivity Class: 1:10; for % of Cysteine depletion, Rep 1: peptide 0.02 mM : test chemical 0.2 mM (1:10); for Reactivity Class: cysteine
Method: For cysteine DPRA, an additional step was performed.
The mass spectrometric analysis was performed by use of a AB SCIEX QTRAP 5500 tandem mass spectrometry (MS/MS) system (AB SCIEX, Framingham, Mass., USA) operating in triple quadrupole positive mode (ESI+) equipped with an AB Sciex Turbo Ion Spray interface. Acquisition and analysis of data were performed with Analyst software ver. 1.6.2 (Applied Biosystems).

sensitized patients = test: Patch test with 1% PPD formulation in paraffin; type: in vivo, human; conditions: 1% PPD patch test formulation in paraffin
Description: (§1) This is true even after 2 days of patch test as the test field remains colourless.
Thus there remains a need for hair and temporary skin colourings that avoid such allergic responses and may be suitable for use in subjects who show sensitivity to conventional colouring materials.

[2] = Oxidation stability of 1% PPD patch test formulation in paraffin (mass spectrometry); type: physicochemical; conditions: several days in air
Description: as §1

HaCaT cells = test: In vitro cell cytotoxicity (MTT) assay on HaCaT cells; type: cell-based, human; conditions: Homo sapiens, HaCaT; 72 h incubation; MTT
Outline: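 HaCaT keratinocytes seeded at 5×10^3/well, after 24 h exposed 72 h to test compounds serially diluted from 500 μM to 1.9 μM in 10% FBS DMEM. MTT (1 mg/ml, 4 h) read at 570 nm; viability expressed as percent of untreated control.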

SMILES: Nc1ccc(N)cc1 [PPD, para-phenylenediamine, reference compound]
- % of Cysteine depletion, Avg ([1]; 20 min): 15.1%
- % of Cysteine depletion, Rep 2 ([1]; 20 min): 14%
- % of Cysteine depletion, Rep 3 ([1]; 20 min): 15.2%
- % of Cysteine depletion, Rep 1 ([1]; 20 min): 16.2%
- % of Cysteine depletion, Avg ([1]; 24 h): 77.6%
- % of Cysteine depletion, Rep 2 ([1]; 24 h): 78%
- % of Cysteine depletion, Rep 3 ([1]; 24 h): 77.2%
- % of Cysteine depletion, Rep 1 ([1]; 24 h): 77.7%
- Reactivity Class ([1]; 20 min): low and Low
- Reactivity Class ([1]; 24 h): High
- Skin reaction of sensitized patients (sensitized patients): clear localised contact dermatitis
- Oxidation stability in paraffin [2]: protected against oxidation
- IC50 (HaCaT cells): 23.5 µM
